We go through nine compounds from PubChem BioAssay (NCI).

What all share (assay): NCI tumour cell line growth inhibition, 48 h
Assay [1] deals with TK-10 renal.
Assay [2] deals with IGROV1 ovarian.
Assay [3] deals with MALME-3M melanoma.
In assay [4] the test system is HOP-92 NSCLC.
Assay [5] has as its system SK-OV-3 ovarian.
The subject of assay [6] is SK-MEL-5 melanoma.
Assay [7] relates to NCI-H460 lung.
For assay [8], the system named is SF-295 CNS.
Assay [9] deals with HCT-116 colon.
Assay [10] deals with CCRF-CEM leukemia.
Assay [11] deals with NCI-H23 lung.
The subject of assay [12] is EKVX NSCLC.
The test system of assay [13] is SK-MEL-28 melanoma.
Assay [14] concerns A549 NSCLC.
Assay [15] concerns RXF 393 renal.
Assay [16] concerns SR leukemia.
For assay [17], the system named is T-47D breast.
The test system of assay [18] is MDA-MB-435.

The structures appear in SMILES notation.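 Following 48 hours of exposure in 96-well plates, responses at five concentrations were used to interpolate endpoints linearly. TGI: total growth inhibition.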

For `CC1(S)CC2C(CC1Sc1ccccc1)C2(C)C` (configuration not stated), the TGI in assay [1], in assay [2], in assay [3], in assay [4], in [5] and in assay [6] was > 100 µM in each case. For the same compound, the TGI in [7], in assay [8], in [9], in assay [10], in assay [11] and in [12] was > 100 µM throughout. Besides, the TGI in assay [13] and in assay [14] was > 100 µM each time.
With `CC1(C)OCC([C@H]2CC23SCCCS3)O1` (some centres not stated), the TGI in [1], in assay [2], in assay [3], in assay [4], in [5] and in assay [6] was > 100 µM in each case. For the same compound, the TGI in assay [7], in [15], in assay [8], in assay [9], in assay [11] and in assay [12] was > 100 µM in each case. Further, the TGI in assay [16], in assay [13] and in [14] was > 100 µM in each case.
Consider `O=C(N/N=C/c1ccccc1O)c1ccccc1Nc1ccccc1C(=O)N/N=C/c1ccccc1O`, for which the TGI in assay [1] was > 100 µM; in assay [2], > 100 µM; in assay [3], 6.09 µM; in assay [5] it was > 100 µM; in assay [6], 8.15 µM; in [7], > 100 µM. Further, the TGI in assay [15] is > 100 µM; in [8] it was > 100 µM; in assay [9], 3.5 µM; in assay [10] it was > 100 µM; in assay [17] it was > 100 µM; in assay [11] it was > 100 µM. Further, the TGI was > 100 µM in assay [12], 0.865 µM in [13], > 100 µM in assay [14] and > 30.7 µM in assay [18].
With `O=C(Nc1cc(Cl)cc(Cl)c1)/C(Cc1nc2ccccc2[nH]c1=O)=N/NC(=O)c1ccncc1`, the TGI in assay [1], in [2], in [3], in assay [4], in assay [5] and in [6] was > 100 µM in each case. The TGI in assay [7], in [8], in assay [9], in assay [10], in [12] and in assay [14] was > 100 µM each time.
On to `NCCCCC(=O)c1cccnc1`, for which the TGI in [1], in [2], in assay [3], in [4], in assay [5] and in [6] was > 100 µM throughout. In addition, the TGI in [7], in assay [8], in assay [9], in [10], in assay [11] and in assay [12] was > 100 µM throughout. The TGI in [16], in assay [13] and in assay [14] was > 100 µM each time.
Turning to `CCN(CC)CCCNc1nc(=O)[nH]c(C)c1C(=O)Nc1ccc2c(c1)c1ccccc1n2CC`, the TGI in assay [1], in assay [2], in assay [3], in [4], in assay [5] and in assay [6] was > 100 µM throughout. Besides, the TGI in [15], in assay [8], in assay [9], in [10], in assay [17] and in assay [11] was > 100 µM throughout. For the same compound, the TGI in [12], in assay [13], in assay [14] and in assay [18] was > 100 µM throughout.
On to `Cc1c(N/C=C(\C#N)C(=O)c2ccc(Cl)cc2)c(=O)n(-c2ccccc2)n1C`, for which the TGI in [1], in assay [2], in assay [3], in [4], in [5] and in assay [6] was > 100 µM in each case. Also, the TGI in assay [7], in [15], in assay [8], in [9], in [10] and in [11] was > 100 µM each time. The TGI in assay [12], in assay [13], in assay [14] and in assay [18] was > 100 µM each time.
Take `Cc1cnc2c(c1)C(=O)C1=C(OC(C)(C)CC1O)C2=O` (configuration not stated): the TGI in assay [1] amounted to 34.1 µM; in [2], 28.9 µM; in assay [3], 27.6 µM; in assay [4], 30.5 µM; in [5], 36.5 µM; in assay [6] it was 26.9 µM. Further, the TGI was found to be 23.9 µM in assay [7]; 29.3 µM in [15]; 26.6 µM in [8]; 27.9 µM in assay [9]; 51.1 µM in assay [10]; 26.2 µM in assay [11]. For the same compound, the TGI in assay [12] was 36.4 µM; in [16] it was > 100 µM; in assay [13], 31.1 µM; in assay [14], 31.9 µM.
As to `COC(=O)[C@]1(c2cc3ccccc3[nH]2)CC2CN(CC(=O)N(C)OC)C1CC2(OC)OC` (some centres not stated), the TGI in assay [1], in [2], in assay [3], in [4], in [5] and in [6] was > 100 µM in each case. Moreover, the TGI is > 100 µM in [7]; > 100 µM in [15]; > 100 µM in [8]; 70.7 µM in assay [9]; 32 µM in [10]; 57.1 µM in assay [17]. The TGI in assay [11] is > 100 µM; in assay [12] it was > 100 µM; in [13] it was > 100 µM; in assay [14], > 100 µM; in assay [18] it was 91.3 µM.
